Drawing on ChEMBL document CHEMBL1135875, “Hydrophobic modifications at 1-phosphate of inositol 1,4,5-trisphosphate analogues enhance receptor binding” (Bioorg Med Chem Lett, 2002), this text covers Relative affinity and Kd for three compounds.

Experiment [1] addresses T1, Inositol 1,4,5-trisphosphate-gated calcium channel ITPR1 (Homo sapiens, UniProt Q14643). Briefly: Affinity towards IP3-binding domain (IBD) of human Type 1 inositol 1,4,5-trisphosphate receptor was determined relative to compound 2.
Experiment [2] has as its target T1, Inositol 1,4,5-trisphosphate-gated calcium channel ITPR1. Briefly: Dissociation constant using IP3-binding domain (IBD) of human Type 1 inositol 1,4,5-trisphosphate receptor.

T1 sequence (Q14643 whole entry, the tested form may be a part): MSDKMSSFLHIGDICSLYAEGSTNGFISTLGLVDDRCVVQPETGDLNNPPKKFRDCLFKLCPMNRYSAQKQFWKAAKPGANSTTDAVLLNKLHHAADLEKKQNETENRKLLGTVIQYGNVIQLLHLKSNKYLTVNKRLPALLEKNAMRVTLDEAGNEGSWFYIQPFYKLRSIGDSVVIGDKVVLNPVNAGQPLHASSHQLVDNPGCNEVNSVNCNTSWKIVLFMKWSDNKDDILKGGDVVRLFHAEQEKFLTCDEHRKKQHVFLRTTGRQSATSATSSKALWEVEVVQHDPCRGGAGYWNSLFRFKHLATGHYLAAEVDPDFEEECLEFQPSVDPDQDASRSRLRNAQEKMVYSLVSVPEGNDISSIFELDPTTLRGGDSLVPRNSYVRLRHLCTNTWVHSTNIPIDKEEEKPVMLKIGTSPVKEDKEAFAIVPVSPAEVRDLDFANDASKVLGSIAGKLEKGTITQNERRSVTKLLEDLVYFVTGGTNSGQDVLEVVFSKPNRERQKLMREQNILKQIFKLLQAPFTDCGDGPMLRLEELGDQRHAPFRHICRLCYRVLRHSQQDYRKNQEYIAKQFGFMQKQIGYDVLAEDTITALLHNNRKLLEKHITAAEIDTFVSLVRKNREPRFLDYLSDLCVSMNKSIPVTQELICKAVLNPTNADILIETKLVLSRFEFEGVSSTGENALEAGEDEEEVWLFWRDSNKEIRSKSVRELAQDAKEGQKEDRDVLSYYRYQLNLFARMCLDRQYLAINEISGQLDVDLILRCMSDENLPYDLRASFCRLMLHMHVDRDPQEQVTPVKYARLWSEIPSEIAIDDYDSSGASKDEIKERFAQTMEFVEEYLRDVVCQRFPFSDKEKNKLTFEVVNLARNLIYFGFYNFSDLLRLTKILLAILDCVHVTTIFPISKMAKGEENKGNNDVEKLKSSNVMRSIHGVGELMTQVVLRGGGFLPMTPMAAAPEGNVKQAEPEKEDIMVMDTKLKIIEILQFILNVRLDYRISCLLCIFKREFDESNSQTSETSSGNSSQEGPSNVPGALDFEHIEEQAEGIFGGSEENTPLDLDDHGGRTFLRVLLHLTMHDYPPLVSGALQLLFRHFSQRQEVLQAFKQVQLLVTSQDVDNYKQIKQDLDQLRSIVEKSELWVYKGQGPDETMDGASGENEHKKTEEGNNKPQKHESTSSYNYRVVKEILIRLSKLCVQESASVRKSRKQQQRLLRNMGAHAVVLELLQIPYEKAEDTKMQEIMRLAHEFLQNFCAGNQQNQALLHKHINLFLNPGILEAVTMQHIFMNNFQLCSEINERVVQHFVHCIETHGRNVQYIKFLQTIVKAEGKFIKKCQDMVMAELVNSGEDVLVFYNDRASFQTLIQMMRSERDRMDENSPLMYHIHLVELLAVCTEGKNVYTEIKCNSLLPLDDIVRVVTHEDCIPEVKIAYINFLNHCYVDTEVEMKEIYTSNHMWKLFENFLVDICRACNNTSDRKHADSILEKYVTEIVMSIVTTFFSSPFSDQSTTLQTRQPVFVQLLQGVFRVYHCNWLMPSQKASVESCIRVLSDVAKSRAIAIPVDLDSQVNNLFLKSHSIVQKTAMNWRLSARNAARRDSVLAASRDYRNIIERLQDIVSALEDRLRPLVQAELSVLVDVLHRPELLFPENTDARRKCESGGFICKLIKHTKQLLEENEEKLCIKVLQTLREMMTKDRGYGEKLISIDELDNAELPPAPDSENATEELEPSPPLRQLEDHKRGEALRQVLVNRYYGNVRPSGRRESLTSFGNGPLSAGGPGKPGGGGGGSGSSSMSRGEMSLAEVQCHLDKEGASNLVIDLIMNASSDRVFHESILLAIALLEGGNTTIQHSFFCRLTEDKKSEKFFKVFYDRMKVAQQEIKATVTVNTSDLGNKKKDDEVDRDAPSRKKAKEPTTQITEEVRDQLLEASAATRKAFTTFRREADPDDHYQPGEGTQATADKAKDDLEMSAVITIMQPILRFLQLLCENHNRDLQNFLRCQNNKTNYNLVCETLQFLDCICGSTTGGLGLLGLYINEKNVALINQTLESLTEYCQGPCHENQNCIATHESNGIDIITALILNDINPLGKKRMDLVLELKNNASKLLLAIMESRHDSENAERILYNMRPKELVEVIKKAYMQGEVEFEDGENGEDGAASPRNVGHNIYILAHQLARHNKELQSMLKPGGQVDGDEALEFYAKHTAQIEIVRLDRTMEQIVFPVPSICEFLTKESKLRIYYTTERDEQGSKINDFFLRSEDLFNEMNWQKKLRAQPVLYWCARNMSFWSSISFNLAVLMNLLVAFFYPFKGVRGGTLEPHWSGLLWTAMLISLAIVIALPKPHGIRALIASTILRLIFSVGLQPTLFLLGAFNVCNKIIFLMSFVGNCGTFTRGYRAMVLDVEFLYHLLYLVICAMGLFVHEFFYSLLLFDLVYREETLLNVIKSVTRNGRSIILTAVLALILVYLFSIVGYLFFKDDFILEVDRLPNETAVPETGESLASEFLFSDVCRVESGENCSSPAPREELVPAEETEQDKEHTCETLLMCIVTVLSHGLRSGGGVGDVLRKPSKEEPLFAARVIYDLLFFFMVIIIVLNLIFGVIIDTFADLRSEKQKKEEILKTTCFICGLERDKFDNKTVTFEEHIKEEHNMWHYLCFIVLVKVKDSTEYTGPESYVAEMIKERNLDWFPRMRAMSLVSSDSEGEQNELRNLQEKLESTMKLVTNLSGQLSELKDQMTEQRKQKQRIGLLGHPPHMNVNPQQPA

For the compound `CN(C)c1ccc2c(-c3ccc(C(=O)NCCCOP(=O)(O)O[C@@H]4[C@H](O)[C@H](O)[C@@H](OP(=O)(O)O)[C@H](OP(=O)(O)O)[C@H]4O)cc3C(=O)[O-])c3ccc(=[N+](C)C)cc-3oc2c1`, in experiment [1], the Relative affinity amounted to 2.4. The Kd in experiment [2] came to 620 nM.
In the case of `CN(C)c1ccc(C(=C2C=CC(=[N+](C)C)C=C2)c2ccc(C(=O)NCCCOP(=O)(O)O[C@@H]3[C@H](O)[C@H](O)[C@@H](OP(=O)(O)O)[C@H](OP(=O)(O)O)[C@H]3O)cc2)cc1`, the Relative affinity in experiment [1] amounted to 950.
Consider `NCCCOP(=O)(O)O[C@@H]1[C@H](O)[C@H](O)[C@@H](OP(=O)(O)O)[C@H](OP(=O)(O)O)[C@H]1O`, for which, in experiment [1], the Relative affinity stood at 1. For the same compound, the Kd in experiment [2] was 1500 nM.
